From patent publication US4056629A, “Pharmacologically active O-acyl-2,3-diaryl-3-halogeno-acryl-aldoximes” (Hoechst Aktiengesellschaft, priority 1975, dated 1977)

Tests used:
[1] = tested on: gout-like disturbance of the purine metabolism; experiment: 3-day cycle in the oxonate rat (uric acid in urine on days 1-3 and in serum on day 3); type: in vivo, white male Wistar rats; conditions: for Serum Uric acid conc.: third day, * statistically significant p < 0.05 (Duncan test)
Description: (§1) The uricosuric and hypouricemic effects were observed by way of experiment on the oxonate rat. In this experimental test arrangement the uricase activity of the rat liver was inhibited by the administration of potassium oxonate, thus producing a gout-like disturbance of the purine metabolism. The effect was tested in the following test arrangement:
2. The influence on the gout-like metabolism disturbance which had been induced by way of experiment was also examined in a 3-day cycle. For this purpose, the animals (white male Wistar rats) were placed into the metabolism cages 18 hours prior to the start of the experiment. The animals drank water, and they were offered a special fodder mixture to consume ad libitum. The composition of the fodder mixture was as follows: 5 % of fructose, 3% of uric acid, 2 % of potassium oxonate, and 100 mg of synthetic sweetening agent (acesulfame) per 1 kg of body weight. On the first and second days of the experiment, the compositions were administered to the animals, in a 0.5 % potassium-oxanate solution, into the stomach by way of an esophagal sound. The urine samples were examined on the first, second and third days of the experiment, and the serum samples were tested for their uric acid content on the third day of the experiment.
In Table 4 the results following the application of allopurinol (as comparative substance) have been indicated in the above-mentioned experimental scheme.

[2] = tested on: gout-like disturbance of the purine metabolism; experiment: 24-hour test in the oxonate rat (uric acid, urine volume, pH and Na+ after potassium oxonate); type: in vivo, male Wistar rats; conditions: for Uric acid serum (-x (mg %) ± SD): control 5.41 + 0.66, * statistically significant (U test); for Activity in words (heading of Table 2): Example 14 combined with the increase of diuresis and the excretion of sodium
Description: as §1
1. The influence on the gout-like disturbance of the purine metabolism which had been induced by way of experiment was tested in a 24 hour test. In this test arrangement, the animals are given the substances in a 0.5 % potassium-oxonate solution into the stomach by means of an esophagal sound, after water and fodder had been withheld for 18 hours. During the entire test period, the animals are given the 0.5 % potassium-oxonate solution ad libitum. After 8 hours, they are additionally given 5 ml of water per 100 g of body weight into the stomach, by way of an esophagal sound. After 24 hours urine samples were taken, the animals were killed in a narcosis produced by ether, and the blood and urine were analysed for the content of uric acid. In addition, the creatinine concentration, the sodium, potassium and chloride concentration in the urine and serum samples were determined.

[3] = Table 3, 3 mg/kg, 1st day, oxonate control 3.38
[4] = Table 3, 3 mg/kg, 1st day, oxonate control 42.5
[5] = Table 3, 3 mg/kg, 2nd day, oxonate control 3.83
[6] = Table 3, 3 mg/kg, 2nd day, oxonate control 42.9
[7] = Table 3, 3 mg/kg, 3rd day, oxonate control 5.17
[8] = Table 3, 3 mg/kg, 3rd day, oxonate control 48.8
[9] = Table 3, 3 mg/kg, oxonate control 5.49
[10] = Table 2 II, 0.3 mg/kg, control = 100
[11] = Table 2 II, 3.0 mg/kg, control = 100
[12] = Table 2 I, 3 mg/kg, oxonate control group = 100

Compound: Oc1ncnc2[nH]ncc12 [Allo, Allopurinol, reference compound]
- Urine Amount of uric acid ([1]; Table 4, 50 mg/kg, 1st day, oxonate control 0.80): 0.91 mg/24 h
- Urine Uric acid conc. ([1]; Table 4, 50 mg/kg, 1st day, oxonate control 11.3): 11.6 mg %
- Urine Amount of uric acid ([1]; Table 4, 50 mg/kg, 2nd day, oxonate control 2.6): 2.1 mg/24 h
- Urine Uric acid conc. ([1]; Table 4, 50 mg/kg, 2nd day, oxonate control 23.9): 18.7 mg %
- Urine Amount of uric acid ([1]; Table 4, 50 mg/kg, 3rd day, oxonate control 3.4): 3.8 mg/24 h
- Urine Uric acid conc. ([1]; Table 4, 50 mg/kg, 3rd day, oxonate control 36.4): 31.6 mg %
- Serum Uric acid conc. ([1]; Table 4, 50 mg/kg, oxonate control 6.7): 6.2 mg %
- Urine Amount of uric acid ([1]; Table 4, 100 mg/kg, 1st day, oxonate control 0.80): 0.9 mg/24 h
- Urine Uric acid conc. ([1]; Table 4, 100 mg/kg, 1st day, oxonate control 11.3): 12.7 mg %
- Urine Amount of uric acid ([1]; Table 4, 100 mg/kg, 2nd day, oxonate control 2.6): 2.0 mg/24 h
- Urine Uric acid conc. ([1]; Table 4, 100 mg/kg, 2nd day, oxonate control 23.9): 19.9 mg %
- Urine Amount of uric acid ([1]; Table 4, 100 mg/kg, 3rd day, oxonate control 3.4): 3.7 mg/24 h
- Urine Uric acid conc. ([1]; Table 4, 100 mg/kg, 3rd day, oxonate control 36.4): 28.2 mg %
- Serum Uric acid conc. ([1]; Table 4, 100 mg/kg, oxonate control 6.7): 5.2 mg %

Compound: O=C(ON=CC(=C(Br)c1ccccc1)c1ccccc1)c1ccccc1 [Example 5, O-benzoyl-2-phenyl-3-bromo-cinnamic aldoxime]
- Urine Amount of uric acid [1, 3]: 2.59 mg/24 h
- Urine Uric acid conc. [1, 4]: 38.9 mg %
- Urine Amount of uric acid [1, 5]: 2.41 mg/24 h
- Urine Uric acid conc. [1, 6]: 32.4 mg %
- Urine Amount of uric acid [1, 7]: 3.68 mg/24 h
- Urine Uric acid conc. [1, 8]: 34.7 mg %
- Serum Uric acid conc. [1, 9]: 4.07 mg %

Compound: CC(=O)ON=CC(=C(Br)c1ccccc1)c1ccccc1 [Example 6, O-acetyl-2-phenyl-3-bromo-cinnamic aldoxime]
- Urine Amount of uric acid [1, 3]: 2.40 mg/24 h
- Urine Uric acid conc. [1, 4]: 33.4 mg %
- Urine Amount of uric acid [1, 5]: 2.96 mg/24 h
- Urine Uric acid conc. [1, 6]: 32.8 mg %
- Urine Amount of uric acid [1, 7]: 2.98 mg/24 h
- Urine Uric acid conc. [1, 8]: 32.7 mg %
- Serum Uric acid conc. [1, 9]: 3.65 mg %

Compound: CCCCCCCCCC(=O)ON=CC(=C(Br)c1ccccc1)c1ccccc1 [Example 7, O-caprinoyl-2-phenyl-3-bromo-cinnamic aldoxime]
- Urine Amount of uric acid [1, 3]: 2.78 mg/24 h
- Urine Uric acid conc. [1, 4]: 36.4 mg %
- Urine Amount of uric acid [1, 5]: 2.99 mg/24 h
- Urine Uric acid conc. [1, 6]: 31.8 mg %
- Urine Amount of uric acid [1, 7]: 2.74 mg/24 h
- Urine Uric acid conc. [1, 8]: 31.2 mg %
- Serum Uric acid conc. [1, 9]: 4.03 mg %

Compound: CCCCCCCCCC(=O)ON=CC(=C(Cl)c1ccc(OC)cc1)c1ccc(OC)cc1 [Example 8, O-caprinoyl-2-(4-methoxyphenyl)-3-chloro-p-methoxy-cinnamic aldoxime]
- Uric acid excretion (-x ± SD) ([2]; Table 2 II, 0.3 mg/kg, control 2.74 + 1.43): 3.25 + 1.68 mg/24 hr./100 g b. wt.
- Uric acid serum (-x (mg %) ± SD) ([2]; Table 2 II, 0.3 mg/kg): 5.00 + 0.54 mg %
- Uric acid excretion, % control [2, 10]: 118 % control
- Uric acid serum, % control [2, 10]: 92 % control
- Uric acid excretion (-x ± SD) ([2]; Table 2 II, 3.0 mg/kg, control 2.74 + 1.43): 2.46 + 1.19 mg/24 hr./100 g b. wt.
- Uric acid serum (-x (mg %) ± SD) ([2]; Table 2 II, 3.0 mg/kg): 4.81 + 0.74 mg %
- Uric acid excretion, % control [2, 11]: 89 % control
- Uric acid serum, % control [2, 11]: 88 % control
- Activity in words (heading of Table 2) ([2]; oxonate rat): uricosuric and hypouricemic activity

Compound: O=C(Nc1ccccc1)ON=CC(=C(Br)c1ccccc1)c1ccccc1 [Example 14, 2-phenyl-3-bromo-cinnamic aldoxime-O-(N-phenyl)-carbamate]
- Amount of urine Na+ ([2]; Table 2 I, 3 mg/kg, control 0.09 + 0.03): 0.11 + 0.02 mg/24 hr/100 g b. wt.
- Amount of urine excreted (-x + SD) ([2]; Table 2 I, 3 mg/kg, control 7.1 + 2.1): 9.3 + 3.06 ml/24 hr./100 g b. wt.
- urine pH ([2]; Table 2 I, 3 mg/kg, control 7.5 + 0.2, * statistically significant (Scheffe test)): 7.2 + 0.08
- Amount of urine excreted, % control [2, 12]: 130 % control
- Uric acid excretion, % control [2, 12]: 118 % control
- Uric acid excretion (-x ± SD) ([2]; Table 2 I, oxonate rat, 3 mg/kg, into the stomach): 3.52 ± 1.11 mg/24 hr./100 g b. wt.
- Activity in words (heading of Table 2) ([2]; oxonate rat): uricosuric activity
